What was measured:
Conditions in all cases: Compound concentration 100.0 nM
[1] = system: Tyrosine-protein kinase ABL1 (Homo sapiens), P00519 [H396P]
[2] = system: Tyrosine-protein kinase ABL1 (Homo sapiens), P00519 [T315I]
[3] = target: Activin receptor type-1 (Homo sapiens) (UniProt Q04771)
[4] = target: Activin receptor type-2B (Homo sapiens) (UniProt Q13705)
[5] = target: RAC-gamma serine/threonine-protein kinase (Homo sapiens) (UniProt Q9Y243)
[6] = target: Calcium/calmodulin-dependent protein kinase type II subunit delta (Homo sapiens) (UniProt Q13557)
[7] = target: Citron Rho-interacting kinase (Homo sapiens) (UniProt O14578)
[8] = target: Serine/threonine-protein kinase DCLK2 (Homo sapiens) (UniProt Q8N568)
[9] = target: Serine/threonine-protein kinase 17B (Homo sapiens) (UniProt O94768)
[10] = target: Ephrin type-B receptor 3 (Homo sapiens) (UniProt P54753)
[11] = target: Ephrin type-B receptor 6 (Homo sapiens) (UniProt O15197)
[12] = target: Receptor tyrosine-protein kinase erbB-4 (Homo sapiens) (UniProt Q15303)
[13] = target: Fibroblast growth factor receptor 4 (Homo sapiens) (UniProt P22455)
[14] = target: Beta-adrenergic receptor kinase 1 (Homo sapiens) (UniProt P25098)
[15] = target: Glycogen synthase kinase-3 alpha (Homo sapiens) (UniProt P49840)
[16] = target: Insulin-like growth factor 1 receptor (Homo sapiens) (UniProt P08069)
[17] = target: Mitogen-activated protein kinase kinase kinase 4 (Homo sapiens) (UniProt Q9Y6R4)
[18] = target: Mitogen-activated protein kinase kinase kinase kinase 4 (Homo sapiens) (UniProt O95819)
[19] = target: MAP kinase-activated protein kinase 5 (Homo sapiens) (UniProt Q8IW41)
[20] = target: Misshapen-like kinase 1 (Homo sapiens) (UniProt Q8N4C8)
[21] = target: MAP kinase-interacting serine/threonine-protein kinase 1 (Homo sapiens) (UniProt Q9BUB5)
[22] = target: Myosin light chain kinase family member 4 (Homo sapiens) (UniProt Q86YV6)
[23] = target: Serine/threonine-protein kinase Nek10 (Homo sapiens) (UniProt Q6ZWH5)
[24] = target: Serine/threonine-protein kinase NIM1 (Homo sapiens) (UniProt Q8IY84)
[25] = target: Serine/threonine-protein kinase NLK (Homo sapiens) (UniProt Q9UBE8)
[26] = target: Serine/threonine-protein kinase PAK 4 (Homo sapiens) (UniProt O96013)
[27] = target: Platelet-derived growth factor receptor alpha (Homo sapiens) (UniProt P16234)
[28] = target: Platelet-derived growth factor receptor beta (Homo sapiens) (UniProt P09619)
[29] = target: Phosphatidylinositol 3-kinase C2 domain-containing subunit gamma (Homo sapiens) (UniProt O75747)
[30] = system: Phosphatidylinositol 4,5-bisphosphate 3-kinase catalytic subunit alpha isoform (Homo sapiens), P42336 [I800L]
[31] = target: Serine/threonine-protein kinase N1 (Homo sapiens) (UniProt Q16512)
[32] = target: Serine/threonine-protein kinase PLK4 (Homo sapiens) (UniProt O00444)
[33] = target: Interferon-induced, double-stranded RNA-activated protein kinase (Homo sapiens) (UniProt P19525)
[34] = target: Protein-tyrosine kinase 2-beta (Homo sapiens) (UniProt Q14289)
[35] = system: Proto-oncogene tyrosine-protein kinase receptor Ret (Homo sapiens), P07949 [M918T]
[36] = target: Ribosomal protein S6 kinase beta-1 (Homo sapiens) (UniProt P23443)
[37] = target: Serine/threonine-protein kinase SIK2 (Homo sapiens) (UniProt Q9H0K1)
[38] = target: SRSF protein kinase 1 (Homo sapiens) (UniProt Q96SB4)
[39] = target: SRSF protein kinase 3 (Homo sapiens) (UniProt Q9UPE1)
[40] = target: TGF-beta receptor type-1 (Homo sapiens) (UniProt P36897)
[41] = target: Tyrosine-protein kinase receptor Tie-1 (Homo sapiens) (UniProt P35590)
[42] = target: Angiopoietin-1 receptor (Homo sapiens) (UniProt Q02763)
[43] = target: Serine/threonine-protein kinase WNK2 (Homo sapiens) (UniProt Q9Y3S1)
[44] = target: Serine/threonine-protein kinase WNK4 (Homo sapiens) (UniProt Q96J92)
[45] = target: Tyrosine-protein kinase ZAP-70 (Homo sapiens) (UniProt P43403)

Sequence of Proto-oncogene tyrosine-protein kinase receptor Ret (Homo sapiens), P07949 [M918T] (P07949 whole entry M918T): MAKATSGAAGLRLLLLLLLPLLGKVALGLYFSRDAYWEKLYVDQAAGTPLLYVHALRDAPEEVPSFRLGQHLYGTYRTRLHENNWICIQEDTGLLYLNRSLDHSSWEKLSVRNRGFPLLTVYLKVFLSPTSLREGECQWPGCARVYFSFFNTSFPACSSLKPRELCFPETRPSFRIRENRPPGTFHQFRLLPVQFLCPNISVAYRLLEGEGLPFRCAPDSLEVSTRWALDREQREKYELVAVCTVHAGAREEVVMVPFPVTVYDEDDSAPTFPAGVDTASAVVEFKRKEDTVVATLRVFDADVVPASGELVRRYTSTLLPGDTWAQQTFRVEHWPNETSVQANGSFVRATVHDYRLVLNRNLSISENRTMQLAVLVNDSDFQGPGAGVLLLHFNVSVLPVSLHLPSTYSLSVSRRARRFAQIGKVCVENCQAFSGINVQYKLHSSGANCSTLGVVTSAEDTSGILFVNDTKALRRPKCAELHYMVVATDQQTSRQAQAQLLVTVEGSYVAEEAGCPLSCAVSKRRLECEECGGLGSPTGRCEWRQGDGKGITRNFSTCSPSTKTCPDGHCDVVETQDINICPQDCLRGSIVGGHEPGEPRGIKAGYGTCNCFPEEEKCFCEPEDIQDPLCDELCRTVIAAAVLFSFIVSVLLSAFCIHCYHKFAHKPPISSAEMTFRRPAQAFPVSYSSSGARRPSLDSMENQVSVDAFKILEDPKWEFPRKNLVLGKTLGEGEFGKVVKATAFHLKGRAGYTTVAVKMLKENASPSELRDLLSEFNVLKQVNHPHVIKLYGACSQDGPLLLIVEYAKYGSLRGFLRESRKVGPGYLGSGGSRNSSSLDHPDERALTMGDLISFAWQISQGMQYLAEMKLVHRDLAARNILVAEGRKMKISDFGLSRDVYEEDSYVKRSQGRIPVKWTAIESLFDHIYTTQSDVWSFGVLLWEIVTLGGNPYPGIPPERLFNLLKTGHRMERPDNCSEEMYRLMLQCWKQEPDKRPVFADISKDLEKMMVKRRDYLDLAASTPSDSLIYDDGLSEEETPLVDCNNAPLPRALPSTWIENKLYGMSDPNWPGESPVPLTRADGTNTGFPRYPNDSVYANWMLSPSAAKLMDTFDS
Sequence of Calcium/calmodulin-dependent protein kinase type II subunit delta (Homo sapiens) (Q13557 whole entry): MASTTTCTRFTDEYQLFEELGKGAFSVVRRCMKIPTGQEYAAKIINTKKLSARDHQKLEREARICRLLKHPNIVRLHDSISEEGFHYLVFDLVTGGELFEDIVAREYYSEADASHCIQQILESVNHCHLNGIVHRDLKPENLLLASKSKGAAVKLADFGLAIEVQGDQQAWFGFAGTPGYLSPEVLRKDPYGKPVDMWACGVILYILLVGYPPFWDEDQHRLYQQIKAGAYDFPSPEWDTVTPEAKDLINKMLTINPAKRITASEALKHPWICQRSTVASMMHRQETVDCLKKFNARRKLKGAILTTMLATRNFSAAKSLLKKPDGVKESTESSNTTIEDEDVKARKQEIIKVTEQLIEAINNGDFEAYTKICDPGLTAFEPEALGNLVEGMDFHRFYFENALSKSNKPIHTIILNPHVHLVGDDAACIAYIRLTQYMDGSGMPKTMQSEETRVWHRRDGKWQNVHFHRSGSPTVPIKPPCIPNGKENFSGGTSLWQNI
Sequence of Angiopoietin-1 receptor (Homo sapiens) (Q02763 whole entry): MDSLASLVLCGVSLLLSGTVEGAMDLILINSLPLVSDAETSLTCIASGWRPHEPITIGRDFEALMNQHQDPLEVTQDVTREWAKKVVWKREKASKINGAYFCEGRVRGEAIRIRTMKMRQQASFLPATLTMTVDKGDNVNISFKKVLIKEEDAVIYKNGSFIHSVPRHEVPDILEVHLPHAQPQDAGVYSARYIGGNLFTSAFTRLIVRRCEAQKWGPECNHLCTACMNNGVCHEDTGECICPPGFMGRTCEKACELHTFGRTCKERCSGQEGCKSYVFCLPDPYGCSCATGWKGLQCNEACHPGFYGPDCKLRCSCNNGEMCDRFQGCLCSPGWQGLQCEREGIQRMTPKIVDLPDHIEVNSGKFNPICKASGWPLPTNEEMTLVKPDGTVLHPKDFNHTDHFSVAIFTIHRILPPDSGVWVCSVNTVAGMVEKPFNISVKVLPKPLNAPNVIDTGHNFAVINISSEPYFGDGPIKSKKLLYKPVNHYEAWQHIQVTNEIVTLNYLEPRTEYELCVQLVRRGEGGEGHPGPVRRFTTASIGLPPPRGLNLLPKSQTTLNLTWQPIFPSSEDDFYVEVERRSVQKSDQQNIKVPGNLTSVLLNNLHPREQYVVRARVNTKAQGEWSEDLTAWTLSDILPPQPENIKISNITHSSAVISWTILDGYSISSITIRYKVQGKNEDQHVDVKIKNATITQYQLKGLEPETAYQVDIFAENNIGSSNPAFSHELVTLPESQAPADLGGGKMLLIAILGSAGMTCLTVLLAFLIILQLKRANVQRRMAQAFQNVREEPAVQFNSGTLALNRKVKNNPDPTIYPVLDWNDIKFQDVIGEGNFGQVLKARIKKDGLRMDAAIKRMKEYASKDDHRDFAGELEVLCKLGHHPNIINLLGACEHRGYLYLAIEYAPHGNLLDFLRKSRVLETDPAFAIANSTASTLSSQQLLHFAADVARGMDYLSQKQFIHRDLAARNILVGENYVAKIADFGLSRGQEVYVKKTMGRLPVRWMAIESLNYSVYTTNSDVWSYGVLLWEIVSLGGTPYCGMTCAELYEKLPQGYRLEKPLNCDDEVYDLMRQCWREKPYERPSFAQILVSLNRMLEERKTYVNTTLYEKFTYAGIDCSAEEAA
Sequence of Ephrin type-B receptor 3 (Homo sapiens) (P54753 whole entry): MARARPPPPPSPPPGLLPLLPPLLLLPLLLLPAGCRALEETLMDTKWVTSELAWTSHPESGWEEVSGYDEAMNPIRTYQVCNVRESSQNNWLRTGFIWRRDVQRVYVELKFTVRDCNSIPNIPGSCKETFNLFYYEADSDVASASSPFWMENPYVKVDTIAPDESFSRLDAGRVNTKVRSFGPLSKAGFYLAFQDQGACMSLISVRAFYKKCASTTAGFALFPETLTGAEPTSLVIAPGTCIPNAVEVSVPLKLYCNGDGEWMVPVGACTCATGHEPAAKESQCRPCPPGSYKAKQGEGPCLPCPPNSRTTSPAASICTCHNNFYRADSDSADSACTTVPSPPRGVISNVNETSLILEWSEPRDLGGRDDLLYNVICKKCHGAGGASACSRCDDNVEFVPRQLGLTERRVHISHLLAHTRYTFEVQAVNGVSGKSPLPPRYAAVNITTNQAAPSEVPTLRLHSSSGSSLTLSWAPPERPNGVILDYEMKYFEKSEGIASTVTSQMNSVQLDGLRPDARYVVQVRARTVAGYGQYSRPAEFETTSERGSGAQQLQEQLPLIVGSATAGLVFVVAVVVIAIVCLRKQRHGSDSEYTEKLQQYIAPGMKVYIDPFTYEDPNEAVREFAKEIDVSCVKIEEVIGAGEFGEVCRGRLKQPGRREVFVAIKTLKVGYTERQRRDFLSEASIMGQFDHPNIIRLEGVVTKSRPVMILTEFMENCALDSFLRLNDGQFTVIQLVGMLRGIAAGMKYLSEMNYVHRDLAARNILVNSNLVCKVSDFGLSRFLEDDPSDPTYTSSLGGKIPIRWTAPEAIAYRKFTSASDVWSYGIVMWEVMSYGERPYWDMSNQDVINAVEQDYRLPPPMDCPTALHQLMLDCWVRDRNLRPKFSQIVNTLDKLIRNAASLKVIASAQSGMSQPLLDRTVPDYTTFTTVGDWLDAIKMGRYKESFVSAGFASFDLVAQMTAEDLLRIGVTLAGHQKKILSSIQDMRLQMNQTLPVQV
Sequence of Misshapen-like kinase 1 (Homo sapiens) (Q8N4C8 whole entry, looked up): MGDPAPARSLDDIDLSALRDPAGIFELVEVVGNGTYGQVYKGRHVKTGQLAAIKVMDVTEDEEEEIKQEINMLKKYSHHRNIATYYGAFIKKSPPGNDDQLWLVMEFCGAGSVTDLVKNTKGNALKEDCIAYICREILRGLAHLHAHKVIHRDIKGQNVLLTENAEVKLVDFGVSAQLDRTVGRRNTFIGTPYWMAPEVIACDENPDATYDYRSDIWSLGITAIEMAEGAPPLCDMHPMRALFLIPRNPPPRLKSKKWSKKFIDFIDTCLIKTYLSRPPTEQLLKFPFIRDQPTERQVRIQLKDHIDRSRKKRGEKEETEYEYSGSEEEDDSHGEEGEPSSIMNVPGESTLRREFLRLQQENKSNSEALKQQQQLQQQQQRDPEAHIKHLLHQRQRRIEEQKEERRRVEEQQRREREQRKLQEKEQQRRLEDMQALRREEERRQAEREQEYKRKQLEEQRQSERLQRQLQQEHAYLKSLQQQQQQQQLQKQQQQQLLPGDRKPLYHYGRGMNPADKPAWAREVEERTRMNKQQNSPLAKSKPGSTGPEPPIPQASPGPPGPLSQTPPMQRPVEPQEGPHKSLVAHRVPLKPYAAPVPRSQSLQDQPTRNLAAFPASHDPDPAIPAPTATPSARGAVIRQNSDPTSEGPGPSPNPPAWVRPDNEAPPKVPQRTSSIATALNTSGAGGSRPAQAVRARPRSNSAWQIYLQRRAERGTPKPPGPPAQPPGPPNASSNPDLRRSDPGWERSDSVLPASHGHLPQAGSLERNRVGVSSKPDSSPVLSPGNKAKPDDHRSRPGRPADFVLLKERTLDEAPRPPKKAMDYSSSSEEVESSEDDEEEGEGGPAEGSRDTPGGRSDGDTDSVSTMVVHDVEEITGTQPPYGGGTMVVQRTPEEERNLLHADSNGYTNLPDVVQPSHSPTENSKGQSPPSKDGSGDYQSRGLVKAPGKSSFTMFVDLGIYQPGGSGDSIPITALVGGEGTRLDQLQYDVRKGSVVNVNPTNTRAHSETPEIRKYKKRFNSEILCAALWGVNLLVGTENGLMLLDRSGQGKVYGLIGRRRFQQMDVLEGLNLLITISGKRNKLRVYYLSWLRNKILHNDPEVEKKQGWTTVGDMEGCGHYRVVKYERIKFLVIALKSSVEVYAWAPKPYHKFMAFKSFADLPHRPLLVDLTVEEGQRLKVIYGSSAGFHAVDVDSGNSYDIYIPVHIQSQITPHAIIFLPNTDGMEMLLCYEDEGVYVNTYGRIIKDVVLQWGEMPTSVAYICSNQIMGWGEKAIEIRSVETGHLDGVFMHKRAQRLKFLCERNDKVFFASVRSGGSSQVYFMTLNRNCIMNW

CS(=O)(=O)N1CCCC(NC(=O)[C@H](CCC2CCCCC2)NC(=O)c2ccc(CNc3ncnc4c3nnn4-c3ccccc3)cc2)C1 (stereo not given in full) [SR-301]
residual activity [1]: 99% | residual activity [2]: 100% | residual activity [3]: 88% | residual activity [4]: 83% | residual activity [5]: 86% | residual activity [6]: 93% | residual activity [7]: 98% | residual activity [8]: 95% | residual activity [9]: 100% | residual activity [10]: 91% | residual activity [11]: 100% | residual activity [12]: 61% | residual activity [13]: 100% | residual activity [14]: 72% | residual activity [15]: 100% | residual activity [16]: 100% | residual activity [17]: 75% | residual activity [18]: 66% | residual activity [19]: 100% | residual activity [20]: 85% | residual activity [21]: 86% | residual activity [22]: 100% | residual activity [23]: 100% | residual activity [24]: 60% | residual activity [25]: 100% | residual activity [26]: 100% | residual activity [27]: 91% | residual activity [28]: 86% | residual activity [29]: 81% | residual activity [30]: 44% | residual activity [31]: 98% | residual activity [32]: 82% | residual activity [33]: 55% | residual activity [34]: 94% | residual activity [35]: 93% | residual activity [36]: 100% | residual activity [37]: 86% | residual activity [38]: 78% | residual activity [39]: 100% | residual activity [40]: 100% | residual activity [41]: 100% | residual activity [42]: 73% | residual activity [43]: 100% | residual activity [44]: 100% | residual activity [45]: 100%

CS(=O)(=O)N1CCCC(NC(=O)[C@H](CCC2CCCCC2)NC(=O)c2ccc(CNC(=O)c3cnc4ccccn34)cc2)C1 (stereo not given in full) [SR-302]
residual activity [1]: 35% | residual activity [2]: 100% | residual activity [3]: 70% | residual activity [4]: 100% | residual activity [5]: 100% | residual activity [6]: 84% | residual activity [7]: 100% | residual activity [8]: 100% | residual activity [9]: 83% | residual activity [10]: 87% | residual activity [11]: 98% | residual activity [12]: 95% | residual activity [13]: 100% | residual activity [14]: 88% | residual activity [15]: 100% | residual activity [16]: 73% | residual activity [17]: 91% | residual activity [18]: 100% | residual activity [19]: 100% | residual activity [20]: 85% | residual activity [21]: 100% | residual activity [22]: 63% | residual activity [23]: 100% | residual activity [24]: 64% | residual activity [25]: 100% | residual activity [26]: 100% | residual activity [27]: 99% | residual activity [28]: 100% | residual activity [29]: 100% | residual activity [30]: 100% | residual activity [31]: 72% | residual activity [32]: 100% | residual activity [33]: 47% | residual activity [34]: 100% | residual activity [35]: 93% | residual activity [36]: 100% | residual activity [37]: 100% | residual activity [38]: 74% | residual activity [39]: 100% | residual activity [40]: 84% | residual activity [41]: 100% | residual activity [42]: 92% | residual activity [43]: 100% | residual activity [44]: 80% | residual activity [45]: 100%

Source: ChEMBL document CHEMBL4507324 (2021)
